Experimental findings from patent US20260184663A1, “INDENE COMPOUNDS, PHARMACEUTICAL COMPOSITIONS THEREOF, AND THEIR THERAPEUTIC APPLICATIONS” (NucMito Pharmaceuticals co. Ltd., priority 2022, published 2026) are described below.

Each structure is given as a SMILES string. Bounds are passed on as bounds.

Format in all cases: cell-based
Assay [1] has as its system B16F10 (malignant melanoma). Description: Antiproliferative activity (CCK-8 cell viability), B16F10. The following applies: Mus musculus, 72 h, read-out: Antiproliferative activity in cancerous cells, B16F10 (inhibition of cell growth); for inhibition at 3.3 µM: B16-F10, Compound concentration: 3.3 μM; for inhibition at 10 µM: B16-F10, Compound concentration: 10 μM; for inhibition at 30 µM: B16-F10, Compound concentration: 30 μM. The method, boiled down: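 B16F10 melanoma cells grown in DMEM with 10% FBS were plated in 96-well plates at 2,000-5,000 cells/well. After attachment they were exposed to compound in medium for 72 h at 37° C. CCK-8 solution (10 μL) was then added, and after 4 h at 37° C absorbance was read at 450 nm.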

In a further assay the test system is HeLa (cervical cancer). The assay can be described thus: Antiproliferative activity (CCK-8 cell viability), HeLa. The conditions noted are these: Homo sapiens, 72 h, read-out: Antiproliferative activity in cancerous cells, HELA (inhibition of cell growth); for inhibition at 3.3 µM: Compound concentration: 3.3 μM; for inhibition at 10 µM: Compound concentration: 10 μM; for inhibition at 30 µM: Compound concentration: 30 μM. The method, boiled down:
(§1)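 Cells grown in DMEM (HepG2, SW480), MEM (HeLa) or F-12K (A549), each with 10% FBS, then exposed to compound at 3.3, 10 or 30 μM for 72 h at 37 °C. CCK-8 absorbance at 450 nm; viability expressed as percent of DMSO-treated cells, graded as growth inhibition bands.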

A further assay concerns HepG2 (liver cancer). Description: Antiproliferative activity (CCK-8 cell viability), HepG2. The conditions noted are these: Homo sapiens, 72 h, read-out: Antiproliferative activity in cancerous cells, HepG2 (inhibition of cell growth); for inhibition at 3.3 µM: Compound concentration: 3.3 μM; for inhibition at 10 µM: Compound concentration: 10 μM; for inhibition at 30 µM: Compound concentration: 30 μM. The method, boiled down: as §1

The test system of assay [2] is A431 (epidermoid carcinoma). Description: Antiproliferative activity (CCK-8 cell viability), A431. The following applies: Homo sapiens, 72 h, read-out: Antiproliferative activity in cancerous cells, A431 (inhibition of cell growth); for inhibition at 3.3 µM: A-431, Compound concentration: 3.3 μM; for inhibition at 10 µM: A-431, Compound concentration: 10 μM; for inhibition at 30 µM: A-431, Compound concentration: 30 μM. The method, boiled down:
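A431 epidermoid carcinoma cells grown in DMEM with 10% FBS were plated at 2,000-5,000 cells/well in 96-well plates. After attachment they were exposed to compound at 3.3 μM, 10 μM, or 30 μM for 72 h at 37° C. Viability was then assessed by CCK-8 against DMSO vehicle-treated wells.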

For a further assay, the system named is SW480 (colon cancer). The assay can be described thus: Antiproliferative activity (CCK-8 cell viability), SW480. The following applies: Homo sapiens, 72 h, read-out: Antiproliferative activity in cancerous cells, SW480 (inhibition of cell growth); for inhibition at 3.3 µM: Compound concentration: 3.3 μM; for inhibition at 10 µM: Compound concentration: 10 μM; for inhibition at 30 µM: Compound concentration: 30 μM. The method in brief:
as §1

The test system of assay [3] is MDA-MB-231 (breast cancer). The assay can be described thus: Antiproliferative activity (CCK-8 cell viability), MDA-MB-231. The following applies: Homo sapiens, 72 h, read-out: Antiproliferative activity in cancerous cells, MDA-MB-231 (inhibition of cell growth); for inhibition at 3.3 µM: Compound concentration: 3.3 μM; for inhibition at 10 µM: Compound concentration: 10 μM; for inhibition at 30 µM: Compound concentration: 30 μM. The method in brief:
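MDA-MB-231 breast cancer cells, grown in DMEM with 10% FBS, were plated in 96-well plates at 2,000-5,000 cells/well. Once attached, they were exposed to compound and incubated at 37° C. for 72 h. Viability was then measured with CCK-8 (10 μL per well, 4 h at 37° C.) by absorbance at 450 nm, relative to DMSO vehicle wells.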

For assay [4], the system named is A549 (lung adenocarcinoma). Description: Antiproliferative activity (CCK-8 cell viability), A549. The conditions noted are these: Homo sapiens, 72 h, read-out: Antiproliferative activity in cancerous cells, A549 (inhibition of cell growth); for inhibition at 3.3 µM: Compound concentration: 3.3 μM; for inhibition at 10 µM: Compound concentration: 10 μM; for inhibition at 30 µM: Compound concentration: 30 μM. The method in brief:
as §1

Usually inhibition stands for the share of the control response that was lost under treatment. As for `CC1=C(CC(=O)O)c2cc(F)c(F)cc2/C1=C/c1ccc(Oc2ccc(F)cc2)cc1` [E23, (E)-2-(5,6-Difluoro-1-(4-(4-fluorophenoxy)benzylidene)-2-methyl-1H-inden-3-yl)acetic acid], the inhibition at 3.3 µM in assay [1] is < 30%; with HeLa (cervical cancer) it was 30 to 50%; in the assay with HepG2 (liver cancer), < 30%; in assay [2] it was 30 to 50%; in the assay on SW480 (colon cancer), < 30%; in assay [3], ≥ 50%. For the same compound, in assay [4], the inhibition at 3.3 µM is < 30%. Besides, the inhibition at 10 µM in assay [1] was ≥ 50%; in the assay on HeLa (cervical cancer), ≥ 50%; in the assay on HepG2 (liver cancer) it was < 30%; in assay [2], ≥ 50%; in the assay with SW480 (colon cancer), ≥ 50%; in assay [3], ≥ 50%. In assay [4], the inhibition at 10 µM is < 30%. Further, the inhibition at 30 µM (in assay [1]; in the assay on HeLa (cervical cancer); with HepG2 (liver cancer); in assay [2]; with SW480 (colon cancer); in assay [3]) was ≥ 50% in each case. For the same compound, the inhibition at 30 µM in assay [4] is ≥ 50%.

With `CC1=C(CC(=O)O)c2cc(F)ccc2/C1=C/c1ccc(Oc2ccc(Cl)cc2F)cc1` [E24, (E)-2-(1-(4-(4-Chloro-2-Fluorophenoxy)benzylidene)-5-fluoro-2-methyl-1H-inden-3-yl)acetic acid], the inhibition at 3.3 µM in assay [1] was ≥ 50%; with HeLa (cervical cancer), < 30%; with HepG2 (liver cancer), < 30%; in assay [2], ≥ 50%; in the assay on SW480 (colon cancer), < 30%; in assay [3] it was ≥ 50%. Further, the inhibition at 3.3 µM in assay [4] was < 30%. In addition, the inhibition at 10 µM (in assay [1]; in the assay on HeLa (cervical cancer); in the assay with HepG2 (liver cancer); in assay [2]; in the assay on SW480 (colon cancer); in assay [3]) was ≥ 50% in each case. Besides, in assay [4], the inhibition at 10 µM lay in the range of 30 to 50%. For the same compound, the inhibition at 30 µM (in assay [1]; with HeLa (cervical cancer); in the assay with HepG2 (liver cancer); in assay [2]; in the assay on SW480 (colon cancer); in assay [3]) was ≥ 50% in each case. For the same compound, in assay [4], the inhibition at 30 µM is ≥ 50%.

On to `CC1=C(CC(=O)O)c2cc(F)ccc2/C1=C/c1ccc(Oc2ccc(F)cc2Cl)cc1` [E25, (E)-2-(1-(4-(2-Chloro-4-fluorophenoxy)benzylidene)-5-fluoro-2-methyl-1H-inden-3-yl)acetic acid], for which the inhibition at 3.3 µM in assay [1] was 30 to 50%; with HeLa (cervical cancer), 30 to 50%; in the assay with HepG2 (liver cancer) it was < 30%; in assay [2], ≥ 50%; in the assay with SW480 (colon cancer), ≥ 50%; in assay [3], < 30%. In addition, in assay [4], the inhibition at 3.3 µM is < 30%. In addition, the inhibition at 10 µM was 30 to 50% in assay [1]; ≥ 50% in the assay with HeLa (cervical cancer); ≥ 50% with HepG2 (liver cancer); ≥ 50% in assay [2]; ≥ 50% with SW480 (colon cancer); < 30% in assay [3]. Also, the inhibition at 10 µM in assay [4] was < 30%. In addition, the inhibition at 30 µM (in assay [1]; in the assay with HeLa (cervical cancer); in the assay on HepG2 (liver cancer); in assay [2]; in the assay on SW480 (colon cancer); in assay [3]) was ≥ 50% in each case. The inhibition at 30 µM in assay [4] is ≥ 50%.

As to `CC1=C(CC(=O)O)c2cc(F)ccc2/C1=C/c1cccc(Oc2cccc(Cl)c2)c1` [E26, (E)-2-(1-(3-(3-Chlorophenoxy)benzylidene)-5-fluoro-2-methyl-1H-inden-3-yl)acetic acid], the inhibition at 3.3 µM (in assay [1]; in the assay on HeLa (cervical cancer); in the assay on HepG2 (liver cancer); in assay [2]; in the assay with SW480 (colon cancer); in assay [3]) was < 30% each time. Also, the inhibition at 3.3 µM in assay [4] is < 30%. In addition, the inhibition at 10 µM in assay [1] is < 30%; with HeLa (cervical cancer), ≥ 50%; in the assay with HepG2 (liver cancer), ≥ 50%; in assay [2], ≥ 50%; in the assay with SW480 (colon cancer) it was < 30%; in assay [3], < 30%. Besides, the inhibition at 10 µM in assay [4] was < 30%. In addition, the inhibition at 30 µM (in assay [1]; with HeLa (cervical cancer); in the assay with HepG2 (liver cancer); in assay [2]; with SW480 (colon cancer); in assay [3]) was ≥ 50% in each case. Also, the inhibition at 30 µM in assay [4] was ≥ 50%.

Consider `CC1=C(CC(=O)O)c2cc(Br)ccc2/C1=C/c1ccc(Oc2ccc(Cl)cc2)cc1` [E27, (E)-2-(5-Bromo-1-(4-(4-chlorophenoxy)benzylidene)-2-methyl-1H-inden-3-yl)acetic acid], for which the inhibition at 3.3 µM is ≥ 50% in assay [1]; ≥ 50% in the assay with HeLa (cervical cancer); < 30% in the assay with HepG2 (liver cancer); ≥ 50% in assay [2]; < 30% with SW480 (colon cancer); ≥ 50% in assay [3]. The inhibition at 3.3 µM in assay [4] was < 30%. The inhibition at 10 µM in assay [1] is ≥ 50%; in the assay with HeLa (cervical cancer), ≥ 50%; in the assay with HepG2 (liver cancer) it was ≥ 50%; in assay [2], ≥ 50%; in the assay with SW480 (colon cancer) it was 30 to 50%; in assay [3], ≥ 50%. Moreover, the inhibition at 10 µM in assay [4] is ≥ 50%. The inhibition at 30 µM (in assay [1]; in the assay on HeLa (cervical cancer); with HepG2 (liver cancer); in assay [2]; in the assay with SW480 (colon cancer); in assay [3]) was ≥ 50% throughout. In assay [4], the inhibition at 30 µM is ≥ 50%.
